Measurements: PMC11515993, “ZSTK474 targeting PIK3R3 inhibits the Wilms’ tumor through G0 / G1 phase arrest” (PLOS ONE, 2024)

Experiments:
[1] = test system: WiT49 and WT-CLS1 cells; assay: Transwell cell invasiveness assay; type: cell-based; details: 24 and 48 hours
Method: The assessment of cell invasiveness was performed through a Transwell assay on plates coated with matrix gel. When seeded on plates, WiT49 and WT-CLS1 cells were positioned in the […] with a 10% FBS medium, while different concentrations of ZSTK474 in a serum-free medium were placed in the upper chamber. Cells were fixed and stained with crystal violet after 24 and 48 hours of treatment. Cell invasiveness was quantified using ImageJ software while observing under a light microscope.

[2] = test system: WiT49 and WT-CLS1 cells; assay: CCK-8 growth curves; type: cell-based; details: 1/2, 1 and 2 times IC50; 0, 24, 48, 72 hours
Method: (§1) The assessment of cell proliferation was conducted utilizing the CCK-8 assay sourced from MCE (HY-K0301, USA). Following detachment utilizing 0.25% trypsin, WiT49 (2.5×10^3) and WT-CLS1 (3×10^3) cells were cultured in 96-well plates. Following adhesion, cells were subjected to varying doses of ZSTK474 (0–32 μM) for a duration of 48 hours. Following a 2-hour incubation with culture medium (90 μL) and CCK-8 reagent (10 μL) at 37°C, the measurement of the absorbance at 450 nm was conducted to measure the IC50 value of ZSTK474. Following this, the cells were treated with ZSTK474 at concentrations equivalent to 1/2, 1, and 2 times the IC50 value. Growth curves were subsequently plotted at 0, 24, 48, and 72 hours post-incubation.

[3] = test system: WT-CLS1 cells; assay: RT-PCR of NRG4, CDKN1A, FGF18, PIK3R3, PDGFRB; type: cell-based; details: among the five genes
Method: Total RNA was extracted from WiT49 and WT-CLS1 cells utilizing TRIzol reagent (Invitrogen, CA, USA) and subsequently subjected to RT-PCR following the protocols of RTMasterMix (MCE, NJ, USA). Utilizing the SYBR Green RT-PCR Master Mix from MCE in NJ, USA, mRNA quantification was conducted on the Bio-Rad CFX ConnectTM Real-Time System. The relative expressions of NRG4, CDKN1A, FGF18, PIK3R3, and PDGFRB were measured using GAPDH as the internal reference gene.

[4] = design: method as in PMID 16622124; details: chronic oral administration, 800 mg/kg, cited from earlier work
[5] = test system: WiT49 subcutaneous nephroblastoma xenograft tumors; assay: Subcutaneous nephroblastoma xenograft tumor growth and tumor immunofluorescence; type: in vivo, BALB/C nude mice
Method: The in vivo experiments were approved by the Institutional Animal Care and Use Committee of Chongqing Medical University (approval number: CHCMU-IACUC20220323001). After being sourced from the Animal Research Center at Chongqing Medical University, BALB/C nude mice (male, 3 weeks old) were housed in stainless steel cages in a ventilated animal room. The room temperature in the housing facility was maintained at 24°C, with a relative humidity of 60% and a 12-h light/dark cycle. Distilled water and sterilized food were available ad libitum. The mice were acclimated for a week. Injection of 2×10^6 WiT49 cells, suspended in 100μL of DMEM, into the left axilla of the mice was used to induce subcutaneous nephroblastoma xenograft tumors. Once the tumor volume reached 90–100 mm^3, the mice were segregated into four groups (n = 6 in each group). Except for one control group that was given PBS, three groups were given daily doses of ZSTK474 (MCE, China) at 25, 50, and 100 mg/kg over a two-week period. Tumor size and body weight of tumor-bearing mice were monitored throughout the study, and no mice died before meeting criteria for euthanasia. The mice were anaesthetised using 3% isoflurane, blood was taken from the eye socket and then executed by decapitation. Standard blood tests and serum analyses were performed to evaluate toxicity, focusing on liver, cardiac, and renal markers for tumor-bearing mice of each group. Tumor weights were recorded, and samples of various organs and tumors were collected for further analysis. Following fixation in 4% paraformaldehyde for more than 24 hours, tumor tissues underwent dehydration and paraffin embedding and were then sectioned into 4-μm slices. The sections were then subjected to thermal antigen retrieval by treating them with sodium citrate buffer and subsequently exposing them to microwave radiation. Following dewaxing, the sections were blocked using 0.5% bovine serum albumin (BSA) and left to incubate with primary antibodies overnight at 4°C. […]

[6] = test system: WiT49 and WT-CLS1 cells; assay: Cell cycle assay by flow cytometry; type: cell-based; details: different concentrations, 48 hours
Method: The assessment of cell cycle progression after exposure to different concentrations of ZSTK474 was conducted using the BD Cell Cycle Assay Kit from Dojindo, Japan. In accordance with standardized procedures, WT-CLS1 and WiT49 cells were cultured for 48 hours, then fixed in 75% ethanol for an additional 48 hours. Following this, the cells were centrifuged, resuspended twice in PBS, and stained with propidium iodide and RNase at 37°C for 30 minutes. Lastly, cell cycle distribution was assessed through flow cytometry.

[7] = test system: WiT49 and WT-CLS1 cells; assay: Wound healing (scratch) cell migration assay; type: cell-based; details: 0, 24, 48 hours, serum-free medium
Method: WT cells (2×10^5 cells per well) were cultured in 6-well plates in a 5% CO2 environment at 37°C until confluence was achieved. A consistent wound was generated on the cellular surface, and any detached cells were eliminated using PBS. After this, WiT49 and WT-CLS1 cells were subjected to varying concentrations of ZSTK474 in a serum-free DEME medium. After a 48-hour incubation, cell migration was assessed at 0, 24, and 48 hours under a Nikon microscope. The scratch width measurement was performed using ImageJ.

[8] = test system: WiT49 and WT-CLS1 cells; assay: Western blot of treated WT cells; type: cell-based
Method: The protein lysis solution containing 1% PMSF was used to lyse both WiT49 and WT-CLS1 cells treated with ZSTK474. After centrifugation at 12000g for 20 minutes, the protein content was quantified using a BCA assay kit (Thermo, China). Subsequently, 10 μg of protein underwent electrophoresis on a 6%-12.5% SDS-PAGE gel (EpiZyme, China) and was then transferred to a PVDF membrane (Millipore, ISEQ00010, USA) via semi-dry electrotransfer. After three TBST washes, the PVDF membranes were exposed to primary antibodies (Akt, MMP2, MMP9, PI3K, p-PI3K, p-Akt, PCNA, VEGF, P21, CyclinD, CDK4, GAPDH from ZENBIO, Chengdu, China; PIK3R3 from Proteintech, Wuhan, China) overnight at a 1:1000 dilution and 4°C. After being washed three times in TBST, the PVDF membrane was incubated with secondary antibodies (1:20000, ZENBIO, China) for one hour at room temperature. The Bio-RAD analyzer and Image Lab software were utilized for imaging and analysis.

[9] = test system: WiT49 cells; assay: CCK-8 cell proliferation assay (IC50); type: cell-based; details: 48-hour treatment
Method: as §1

[10] = test system: WT-CLS1 cells; assay: CCK-8 cell proliferation assay (IC50); type: cell-based; details: 48-hour treatment
Method: as §1

[11] = In vivo safety in WiT49 tumor-bearing mice (body weight, blood and serum tests, organ HE staining); details: two weeks; for ALT / AST / BUN / CK / CRE: tumor-bearing nude mice
Method: The in vivo experiments were approved by the Institutional Animal Care and Use Committee of Chongqing Medical University (approval number: CHCMU-IACUC20220323001). After being sourced from the Animal Research Center at Chongqing Medical University, BALB/C nude mice (male, 3 weeks old) were housed in stainless steel cages in a ventilated animal room. The room temperature in the housing facility was maintained at 24°C, with a relative humidity of 60% and a 12-h light/dark cycle. Distilled water and sterilized food were available ad libitum. The mice were acclimated for a week. Injection of 2×10^6 WiT49 cells, suspended in 100μL of DMEM, into the left axilla of the mice was used to induce subcutaneous nephroblastoma xenograft tumors. Once the tumor volume reached 90–100 mm^3, the mice were segregated into four groups (n = 6 in each group). Except for one control group that was given PBS, three groups were given daily doses of ZSTK474 (MCE, China) at 25, 50, and 100 mg/kg over a two-week period. Tumor size and body weight of tumor-bearing mice were monitored throughout the study, and no mice died before meeting criteria for euthanasia. The mice were anaesthetised using 3% isoflurane, blood was taken from the eye socket and then executed by decapitation. Standard blood tests and serum analyses were performed to evaluate toxicity, focusing on liver, cardiac, and renal markers for tumor-bearing mice of each group. Tumor weights were recorded, and samples of various organs and tumors were collected for further analysis.
Fresh tumor samples were fixed in paraformaldehyde for 72 hours. The samples were processed through paraffin embedding and subsequently sectioned at a thickness of 4 μm. The subsequent procedures comprised hydration with xylene and alcohol, staining with hematoxylin and eosin, and dehydration through immersion in graded alcohol and xylene. Subsequently, images were acquired using light microscopy from Nikon, Japan.

[12] = test system: WiT49 cells; assay: Annexin V apoptosis flow cytometry; type: cell-based; details: WiT49, 48 hours, IC50 dose
Method: (§2) The assessment of apoptosis was carried out using the Annexin V Apoptosis Kit (BDPharmingen, 5565547, USA). WiT49 and WT-CLS1 cells were cultured in 6-well plates for 12 hours. Subsequently, they were exposed to different concentrations of ZSTK474 for 48 hours and then analyzed using flow cytometry. FlowJo 10.8.1 software was utilized for data analysis.

[13] = test system: WT-CLS1 cells; assay: Annexin V apoptosis flow cytometry; type: cell-based; details: WT-CLS1, 48 hours, IC50 dose
Method: as §2

[14] = test system: WiT49 and WT-CLS1 cells; assay: TUNEL assay; type: cell-based; details: 48 hours, low, medium and high dose
Method: In WT cells, apoptosis-induced DNA damage was identified through TUNEL staining in the low, medium, and high-dose intervention groups. After a 12-hour incubation in 24-well plates, cells were treated with varying concentrations of ZSTK474 for 48 hours. The cells were then subjected to TUNEL staining according to the manufacturer’s instructions. The cell nuclei were counterstained with DAPI and then mounted utilizing an anti-fade mounting medium. The Nikon C2 microscope was employed for image acquisition.

## FC(F)c1nc2ccccc2n1-c1nc(N2CCOCC2)nc(N2CCOCC2)n1 [ZSTK474]
[1]
  invasion capacity (Transwell): decrease in invasion capacity
[2]
  cell growth (proliferation curve): dose-dependent suppression of cell growth
[3]
  PIK3R3 RNA level (RT-PCR): most pronounced downregulation
[4]; by day 28
  weight loss: 14%
[4]; more than 28 days
  dermal toxicity: did not result in any dermal toxicity
  toxic damage to vital organs: no evidence of toxic damage to vital organs
[5]; 25, 50 and 100 mg/kg
  levels of PCNA, MMP2, MMP9 and VEGF in tumor tissues (immunofluorescence): markedly reduced
[5]; day 5, high-dose treatment group
  subcutaneous tumor volume vs control: initial reductions in tumor volume
[5]; day 11, treatment group
  subcutaneous tumor volume vs control: notable reduction in tumor volumes
[6]
  percentage of cells in the G0/G1 phase: significant rise in the percentage of cells in the G0/G1 phase
[7]
  cell migration (scratch assay): reduced migration rates
[8]; WT cells
  expression levels of PCNA, MMP2, MMP9 and VEGF (Western blot): lowered expression levels
  p-PI3K/PI3K and p-Akt/Akt (Western blot): reduced levels
[8]; WiT49 and WT-CLS1
  P21 expression (Western blot): elevation in P21 expression
  cyclin D and CDK4 levels (Western blot): reduction in cyclin D and CDK4 levels
[9]
  IC50: 2000 nM
[10]
  IC50: 2510 nM
[11]; 25 mg/kg daily
  ALT: 69.7(44.7–96.9)
  AST: 117.5 (95.8–153.7)
  BUN: 8.3(5.6–10.6)
  CK: 1084.2 (1029.0–1145.0)
  CRE: 13.0(11.0–15.0)
[11]; 50 mg/kg daily
  ALT: 62.6(48.1–88.2)
  AST: 126.1 (99.4–174.1)
  BUN: 7.7(5.1–10.8)
  CK: 1009.5 (793.0–1141.0)
  CRE: 12.7(11.0–14.0)
[11]; 100 mg/kg daily
  ALT: 60.6(50.4–76.5)
  AST: 130.4 (97.7–173.1)
  BUN: 7.3(5.1–10.1)
  CK: 952.5 (637.0–1135.0)
  CRE: 12.5(10.0–15.0)
[11]; 25, 50, 100 mg/kg daily
  hematological indices and organ pathology examination vs control: no notable variances
  post-administration body weight changes vs PBS control: no significant differences
[12]
  rise in apoptotic cells compared to the controls: 20%
[13]
  rise in apoptotic cells compared to the controls: below 10%
[14]
  apoptosis-induced DNA damage (TUNEL): late apoptotic DNA damage response
